{"source": "patent US7432276B2", "about": "“ABCA1 elevating compounds” (CV Therapeutics, Inc., priority 2005, dated 2008)", "test_system": "ABCA1 mRNA", "assay": "ABCA1 mRNA induction in THP-1 cells, QuantiGene branched DNA assay", "type": "cell-based", "conditions": "10 μM test compound, 18-20 hours; for fold induction at 10 µM: Homo sapiens, read-out: ABCA1 Induction Fold Increase over DMSO Vehicle", "outline": "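THP-1 cells, grown to subconfluence, treated with compounds at 10 and 3 μM in DMEM/BSA for 18–20 h. Lysates hybridized with ABCA1-specific probe 16–18 h at 53 °C; QuantiGene branched DNA luminescence gives fold increase over DMSO.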"}
{"smiles": "COc1cccc2c1OC[C@@H]1[C@@H]2Nc2ccc(C(=O)N3CCOCC3)cc2C1(C)C", "note": "[Number 120, ((6aS,12aS)-6a,7,12,12a-tetrahydro-4-methoxy-7,7-dimethyl-6H-chromeno[4,3-b]quinolin-9-yl)(morpholino)methanone]", "values": [{"measurement": "fold induction at 10 µM", "value": 4.2}]}
{"smiles": "COc1cccc2c1[C@H]1Nc3ccc(C(=O)N4CCS(=O)(=O)CC4)cc3C(C)(C)[C@H]1CO2", "note": "[Number 121, ((6aR,12aS)-6a,7,12,12a-tetrahydro-1-methoxy-7,7-dimethyl-6H-chromeno[4,3-b]quinolin-9-yl)(1,1-dione-1,4-thiazaperhydroin-yl)methanone]", "values": [{"measurement": "ABCA1 Induction Fold Increase over DMSO Vehicle", "value": 3.2, "unit": "FOLD INCREASE"}]}
{"smiles": "COc1cccc2c1[C@H]1Nc3ccc(S(C)(=O)=O)cc3C(C)(C)[C@H]1CO2", "note": "[Number 122, (6aR,12aS)-6a,7,12,12a-tetrahydro-1-methoxy-7,7-dimethyl-9-(methylsulfonyl)-6H-chromeno[4,3-b]quinoline]", "values": [{"measurement": "fold induction at 10 µM", "value": 2.4}]}
{"smiles": "COc1cccc2c1[C@H]1Nc3ccc(C(=O)N(C)C)cc3C(C)(C)[C@H]1CO2", "note": "[Number 123, (6aR,12aS)-6a,7,12,12a-tetrahydro-1-methoxy-N,N,7,7-tetramethyl-6H-chromeno[4,3-b]quinoline-9-carboxamide]", "values": [{"measurement": "fold induction at 10 µM", "value": 6.5}]}
{"smiles": "COc1cccc2c1[C@H]1Nc3ccc(S(=O)(=O)CC(=O)O)cc3C(C)(C)[C@H]1CO2", "note": "[Number 124, 2-((6aR,12aS)-6a,7,12,12a-tetrahydro-1-methoxy-7,7-dimethyl-6H-chromeno[4,3-b]quinolin-9-ylsulfonyl)acetic acid]", "values": [{"measurement": "fold induction at 10 µM", "value": 3.3}]}
{"smiles": "COc1cccc2c1[C@H]1Nc3ccc(C(=O)N4CCN(C(=O)OC(C)(C)C)CC4)cc3C(C)(C)[C@H]1CO2", "note": "[Number 125, ((6aR,12aS)-6a,7,12,12a-tetrahydro-1-methoxy-7,7-dimethyl-6H-chromeno[4,3-b]quinolin-9-yl)(4-tert-butyl-carboxylate-piperazin-1-yl)methanone]", "values": [{"measurement": "ABCA1 Induction Fold Increase over DMSO Vehicle", "value": 4.1, "unit": "FOLD INCREASE"}]}
{"smiles": "CC(C)(C)OC(=O)N1CCN(C(=O)c2ccc3c(c2)C(C)(C)[C@H]2COc4cccc(F)c4[C@H]2N3)CC1", "note": "[Number 126, ((6aR,12aS)-6a,7,12,12a-tetrahydro-1-fluoro-7,7-dimethyl-6H-chromeno[4,3-b]quinolin-9-yl)(4-tert-butyl-carboxylate-piperazin-1-yl)methanone]", "values": [{"measurement": "ABCA1 Induction Fold Increase over DMSO Vehicle", "value": 7.3, "unit": "FOLD INCREASE"}]}
{"smiles": "COc1cccc2c1[C@H]1Nc3ccc(C(=O)N4CCNCC4)cc3C(C)(C)[C@H]1CO2", "note": "[Number 127, ((6aR,12aS)-6a,7,12,12a-tetrahydro-1-methoxy-7,7-dimethyl-6H-chromeno[4,3-b]quinolin-9-yl)(piperazin-1-yl)methanone]", "values": [{"measurement": "fold induction at 10 µM", "value": 5.1}]}
{"smiles": "COc1cccc2c1OC[C@@H]1[C@@H]2Nc2ccc(C(=O)N3CCS(=O)(=O)CC3)cc2C1(C)C", "note": "[Number 128, ((6aS,12aS)-6a,7,12,12a-tetrahydro-4-methoxy-7,7-dimethyl-6H-chromeno[4,3-b]quinolin-9-yl)(1,1-dione-1,4-thiazaperhydroin-yl)methanone]", "values": [{"measurement": "ABCA1 Induction Fold Increase over DMSO Vehicle", "value": 2.7, "unit": "FOLD INCREASE"}]}
{"smiles": "COc1cccc2c1OC[C@H]1[C@@H]2Nc2ccc(C(=O)N3CCS(=O)(=O)CC3)cc2C1(C)C", "note": "[Number 129, ((6aR,12aS)-6a,7,12,12a-tetrahydro-4-methoxy-7,7-dimethyl-6H-chromeno[4,3-b]quinolin-9-yl)(1,1-dione-1,4-thiazaperhydroin-yl)methanone]", "values": [{"measurement": "ABCA1 Induction Fold Increase over DMSO Vehicle", "value": 4.3, "unit": "FOLD INCREASE"}]}
{"smiles": "CC1(C)c2cc(C(=O)N3CCNCC3)ccc2N[C@@H]2c3c(F)cccc3OC[C@@H]21", "note": "[Number 130, ((6aR,12aS)-1-fluoro-6a,7,12,12a-tetrahydro-7,7-dimethyl-6H-chromeno[4,3-b]quinolin-9-yl)(piperazin-1-yl)methanone]", "values": [{"measurement": "fold induction at 10 µM", "value": 4.2}]}
{"smiles": "CC1(C)c2cc(-c3nc(C(=O)O)co3)ccc2N[C@@H]2c3c(F)cccc3OC[C@@H]21", "note": "[Number 131, 2-((6aR,12aS)-1-fluoro-6a,7,12,12a-tetrahydro-7,7-dimethyl-6H-chromeno[4,3-b]quinolin-9-yl)oxazole-4-carboxylic acid]", "values": [{"measurement": "fold induction at 10 µM", "value": 2}]}
{"smiles": "CCS(=O)(=O)N1CCN(C(=O)c2ccc3c(c2)C(C)(C)[C@H]2COc4cccc(OC)c4[C@H]2N3)CC1", "note": "[Number 132, ((6aR,12aS)-1-methoxy-6a,7,12,12a-tetrahydro-7,7-dimethyl-6H-chromeno[4,3-b]quinolin-9-yl)(4-ethanesulfonylpiperazin-1-yl)methanone]", "values": [{"measurement": "fold induction at 10 µM", "value": 4.3}]}
{"smiles": "CCS(=O)(=O)N1CCN(C(=O)c2ccc3c(c2)C(C)(C)[C@@H]2COc4c(OC)cccc4[C@H]2N3)CC1", "note": "[Number 133, ((6aS,12aS)-4-methoxy-6a,7,12,12a-tetrahydro-7,7-dimethyl-6H-chromeno[4,3-b]quinolin-9-yl)(4-ethanesulfonylpiperazin-1-yl)methanone]", "values": [{"measurement": "fold induction at 10 µM", "value": 3.8}]}
{"smiles": "CCS(=O)(=O)N1CCN(C(=O)c2ccc3c(c2)C(C)(C)[C@H]2COc4c(OC)cccc4[C@H]2N3)CC1", "note": "[Number 134, ((6aR,12aS)-4-methoxy-6a,7,12,12a-tetrahydro-7,7-dimethyl-6H-chromeno[4,3-b]quinolin-9-yl)(4-ethanesulfonylpiperazin-1-yl)methanone]", "values": [{"measurement": "fold induction at 10 µM", "value": 5.8}]}
{"smiles": "CCOC(=O)c1cnn(-c2ccc3c(c2)C(C)(C)[C@H]2COc4cccc(OC)c4[C@H]2N3)c1", "note": "[Number 135, ethyl 1-((6aR,12aS)-6a,7,12,12a-tetrahydro-1-methoxy-7,7-dimethyl-6H-chromeno[4,3-b]quinolin-9-yl)-1H-pyrazole-4-carboxylate]", "values": [{"measurement": "fold induction at 10 µM", "value": 6.4}]}
{"smiles": "COc1cccc2c1[C@H]1Nc3ccc(-n4cc(C(=O)O)cn4)cc3C(C)(C)[C@H]1CO2", "note": "[Number 136, 1-((6aR,12aS)-6a,7,12,12a-tetrahydro-1-methoxy-7,7-dimethyl-6H-chromeno[4,3-b]quinolin-9-yl)-1H-pyrazole-4-carboxylic acid]", "values": [{"measurement": "fold induction at 10 µM", "value": 4.1}]}
{"smiles": "COc1cccc2c1[C@H]1Nc3ccc(-n4cc(C(=O)N(C)C)cn4)cc3C(C)(C)[C@H]1CO2", "note": "[Number 137, 1-((6aR,12aS)-6a,7,12,12a-tetrahydro-1-methoxy-7,7-dimethyl-6H-chromeno[4,3-b]quinolin-9-yl)-N,N-dimethyl-1H-pyrazole-4-carboxamide]", "values": [{"measurement": "fold induction at 10 µM", "value": 7}]}
{"smiles": "COc1cccc2c1[C@H]1Nc3ccc(-n4cc(C(=O)N5CCS(=O)(=O)CC5)cn4)cc3C(C)(C)[C@H]1CO2", "note": "[Number 138, 1-((6aR,12aS)-6a,7,12,12a-tetrahydro-1-methoxy-7,7-dimethyl-6H-chromeno[4,3-b]quinolin-9-yl)1-1H-pyrazole-4-((1,1-dione-1,4-thiazaperhydroin-yl)methanone)]", "values": [{"measurement": "ABCA1 Induction Fold Increase over DMSO Vehicle", "value": 7.4, "unit": "FOLD INCREASE"}]}
{"smiles": "CCS(=O)(=O)N1CCN(C(=O)c2ccc3c(c2)C(C)(C)[C@@H]2COc4c(F)cccc4[C@H]2N3)CC1", "note": "[Number 139, ((6aS,12aS)-4-fluoro-6a,7,12,12a-tetrahydro-7,7-dimethyl-6H-chromeno[4,3-b]quinolin-9-yl)(4-ethanesulfonylpiperazin-1-yl)methanone]", "values": [{"measurement": "fold induction at 10 µM", "value": 2.8}]}
{"smiles": "CCS(=O)(=O)N1CCN(C(=O)c2cnn(-c3ccc4c(c3)C(C)(C)[C@H]3COc5cccc(OC)c5[C@H]3N4)c2C)CC1", "note": "[Number 140, 1-((6aR,12aS)-6a,7,12,12a-tetrahydro-1-methoxy-7,7-dimethyl-6H-chromeno[4,3-b]quinolin-9-yl)-5-methyl-1H-pyrazole-4-((4-ethanesulfonylpiperazin-1-yl)methanone)]", "values": [{"measurement": "ABCA1 Induction Fold Increase over DMSO Vehicle", "value": 5.1, "unit": "FOLD INCREASE"}]}
{"smiles": "COc1cccc2c1[C@H]1Nc3ccc(-n4ncc(C(=O)N5CCS(=O)(=O)CC5)c4C)cc3C(C)(C)[C@H]1CO2", "note": "[Number 141, 1-((6aR,12aS)-6a,7,12,12a-tetrahydro-1-methoxy-7,7-dimethyl-6H-chromeno[4,3-b]quinolin-9-yl)1-5-methyl-1H-pyrazole-4-((1,1-dione-1,4-thiazaperhydroin-yl)methanone)]", "values": [{"measurement": "ABCA1 Induction Fold Increase over DMSO Vehicle", "value": 7.1, "unit": "FOLD INCREASE"}]}
{"smiles": "CCS(=O)(=O)N1CCN(C(=O)c2coc(-c3ccc4c(c3)C(C)(C)[C@H]3COc5cccc(F)c5[C@H]3N4)n2)CC1", "note": "[Number 142, 2-((6aR,12aS)-1-fluoro-6a,7,12,12a-tetrahydro-7,7-dimethyl-6H-chromeno[4,3-b]quinolin-9-yl)oxazole-(4-(4-ethanesulfonylpiperazin-1-yl)methanone)]", "values": [{"measurement": "ABCA1 Induction Fold Increase over DMSO Vehicle", "value": 5, "unit": "FOLD INCREASE"}]}
{"smiles": "CC1(C)c2cc(-c3nc(C(=O)N4CCS(=O)(=O)CC4)co3)ccc2N[C@@H]2c3c(F)cccc3OC[C@@H]21", "note": "[Number 143, 2-((6aR,12aS)-1-fluoro-6a,7,12,12a-tetrahydro-7,7-dimethyl-6H-chromeno[4,3-b]quinolin-9-yl)oxazole-(4-(1,1-dione-1,4-thiazaperhydroin-yl)methanone)]", "values": [{"measurement": "ABCA1 Induction Fold Increase over DMSO Vehicle", "value": 6.1, "unit": "FOLD INCREASE"}]}
{"smiles": "CCS(=O)(=O)N1CCN(C(=O)c2cnn(-c3ccc4c(c3)C(C)(C)[C@H]3COc5cccc(F)c5[C@H]3N4)c2C)CC1", "note": "[Number 144, 1-((6aR,12aS)-6a,7,12,12a-tetrahydro-1-fluoro-7,7-dimethyl-6H-chromeno[4,3-b]quinolin-9-yl)-5-methyl-1H-pyrazole-4-((4-ethanesulfonylpiperazin-1-yl)methanone)]", "values": [{"measurement": "ABCA1 Induction Fold Increase over DMSO Vehicle", "value": 2.1, "unit": "FOLD INCREASE"}]}
{"smiles": "Cc1c(C(=O)N2CCS(=O)(=O)CC2)cnn1-c1ccc2c(c1)C(C)(C)[C@H]1COc3cccc(F)c3[C@H]1N2", "note": "[Number 145, 1-((6aR,12aS)-6a,7,12,12a-tetrahydro-1-fluoro-7,7-dimethyl-6H-chromeno[4,3-b]quinolin-9-yl)1-5-methyl-1H-pyrazole-4-((1,1-dione-1,4-thiazaperhydroin-yl)methanone)]", "values": [{"measurement": "ABCA1 Induction Fold Increase over DMSO Vehicle", "value": 4.5, "unit": "FOLD INCREASE"}]}
{"smiles": "COc1cccc2c1OC[C@H]1[C@@H]2Nc2ccc(-c3nc(C(=O)O)co3)cc2C1(C)C", "note": "[Number 146, 2-((6aR,12aS)-6a,7,12,12a-tetrahydro-4-methoxy-7,7-dimethyl-6H-chromeno[4,3-b]quinolin-9-yl)oxazole-4-carboxylic acid]", "values": [{"measurement": "fold induction at 10 µM", "value": 8.2}]}
